Assay results: patent publication US12622899B2 (PureTech LYT 100, Inc., priority 2018, dated 2026)

Columns and labels:
healthy older adults = assay: Study LYT-100-2021-103 Part 3 (Example 2): safety and tolerability vs placebo; conditions: for Abdominal Pain/Discomfort/Distension, adverse events / Diarrhea, adverse events / Dizziness, adverse events / Dyspepsia, adverse events / GI Disorders, adverse events / Headache, adverse events / Nausea, adverse events / Nervous System Disorders, adverse events / Vomiting, adverse events: fed, N=13
Experimental: Only subjects who met all the applicable inclusion and none of the applicable exclusion criteria were randomized.
Safety and tolerability were assessed by monitoring AEs, physical examination, vital signs, 12-lead ECGs, clinical laboratory values (hematology panel, multiphasic chemistry panel and urinalysis), and review of concomitant treatments/medication use.

[1] = system: patients with Idiopathic Pulmonary Fibrosis (IPF); assay: IPF trial Part A: safety and tolerability (TEAEs, AESI, dose modifications, discontinuations); type: in vivo
Experimental: The primary objective was to determine the dose(s) to carry into Phase 3. […] Patients were randomized to one of the four treatments in a 1:1:1:1 ratio and stratified based on prior exposure to nintedanib (<6 months) versus nintedanib-naïve patients. Patients who completed the Double-blind Treatment Period (Part A) were offered participation in the Long-term Extension (Part B). […] For patients who participated in Part B, the follow-up was conducted at the end of Part B. A graphical illustration of an embodiment of the trial design is provided as FIG. 24B.
Safety endpoints included: Adverse events, concomitant medications, clinical laboratory findings (chemistry, hematology, urinalysis), physical examinations, ECGs, and vital signs. These will be summarized descriptively, where appropriate.
Tolerability endpoints included: Frequency of dose modifications (reductions and interruptions), time to first dose modification, (reduction or interruption), duration of adverse events of special interest, time to treatment discontinuation due to an adverse event of special interest and patient reported assessment of IPF symptoms, side-effects, severity, change and satisfaction.
In this study, AEs are reported for all patients from the time of consent until the completion of the Follow-up visit. AEs reported prior to the first dose are denoted as pre-treatment. SAEs are reported for all patients (randomized or not) from the time of consent. AEs reported from the time of consent to confinement on Day 0 were recorded as pre-treatment AEs.
Treatment emergent adverse events (TEAEs) are defined as an AE that occurs following first dose of study medication and were evaluated from the first administration of study drug on Day 1 until the Follow-up visit. […]
This study evaluated in particular the tolerability based on prioritized gastrointestinal adverse events (GI AEs). […]

[2] = system: patients with COVID-19 respiratory disease; assay: Phase 2 trial of LYT-100 in post-acute COVID-19 respiratory disease: tolerability; type: in vivo, human; conditions: COVID-19 study
Experimental: An initial dosage of 500 mg BID was given the first 3 days of dosing, followed by 750 mg BID thereafter.

[3] = Study LYT-100-2021-103 Part 3 (Example 2): PK of LYT-100 550 mg TID then 824 mg TID; type: in vivo, human
Experimental: Subjects provided blood samples prior to treatment, i.e., Day −1 or Day 1, for the determination of CYP1A2, CYP2C9, CYP2C19, and CYP2D6 genotype to support exploratory PK analyses. Subjects were required to provide consent for genotyping. Blood samples for PK were collected at specified times, as follows: • Day 1:0 (pre-AM dose) • Day 2: no sampling • Day 3:0 (pre-AM dose), and 1, 2, 3, 4, 6 (pre-mid-day dose), 7, 8, 9, 10, 12 (pre-PM dose), 13, 14, 15, 16, and 17 hours post-AM dose • Day 4:0 (pre-AM dose) • Day 5: no sampling • Day 6:0 (pre-AM dose), and 1, 2, 3, 4, 6 (pre-mid-day dose), 7, 8, 9, 10, 12 (pre-PM dose), 13, 14, 15, 16, and 17 hours post-AM dose • Day 7:0 (same time as Day 6 pre-AM dose, discharge)
Data was obtained for thirty subjects. Eight subjects had all values reported as below level of quantitation (BLQ; assumed to be 6 placebo subjects plus 2 active subjects with Day 1 pre-dose samples only). One additional subject was excluded due to a large number of BLQ samples on both Days 3-4 and 6-7. Accordingly, twenty-one subjects had sufficient PK data available to calculate PK parameters at the lower dose (550 mg TID on Days 3-4). Three subjects only had data for Days 3-4, and therefore had missing PK parameters for the higher dose (824 mg TID on Days 6-7).

CYP2C19 = biological target: T1, CYP2C19 (Homo sapiens, UniProt P33261); assay: In vitro stability with recombinant human CYP2C19; type: in vitro ADME; conditions: recombinant human isozyme; read-out: t1/2 following incubation with CYP2C19 (converted)
T1 construct: host or cells: heterologous cell systems (not specified)
Experimental: The half-life (t½) of each test article was determined.

[4] = system: rat BLM induced lung fibrosis model; conditions: in vivo, 400 mg/kg
Experimental: For Groups 4, 5, 6, and 7, bleomycin and vehicle dosing were conducted as indicated in Table 28 (0.45 mg/kg, at 1696 IU/mg of Bleomycin or saline on Day 1, 2, 3, 6 and 7).

[5] = Part 3 safety population, LYT-100 550 mg TID Days 1-3 then 824 mg TID Days 4-6, N=24
[6] = LYT-100 500 mg BID 3 days then 750 mg BID

T1 sequence (P33261 whole entry): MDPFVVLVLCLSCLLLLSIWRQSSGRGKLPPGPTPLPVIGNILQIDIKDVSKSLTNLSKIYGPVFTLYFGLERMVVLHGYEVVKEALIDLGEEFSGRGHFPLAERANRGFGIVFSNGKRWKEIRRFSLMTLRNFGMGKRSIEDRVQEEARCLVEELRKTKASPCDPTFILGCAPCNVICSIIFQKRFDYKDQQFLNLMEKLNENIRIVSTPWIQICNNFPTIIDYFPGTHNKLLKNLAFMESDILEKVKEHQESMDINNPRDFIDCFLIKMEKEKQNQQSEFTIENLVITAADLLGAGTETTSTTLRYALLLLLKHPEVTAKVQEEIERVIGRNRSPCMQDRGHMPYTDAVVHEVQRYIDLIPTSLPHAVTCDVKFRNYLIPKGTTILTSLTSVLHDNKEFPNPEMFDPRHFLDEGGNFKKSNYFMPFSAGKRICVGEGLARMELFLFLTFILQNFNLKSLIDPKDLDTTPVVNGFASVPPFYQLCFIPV

[2H]C([2H])([2H])c1ccc(=O)n(-c2ccccc2)c1 [LYT-100, 5-(methyl-d3)-1-phenylpyridin-2-(1H)-one]
deaths or SAEs (healthy older adults; Part 3): No deaths or SAEs | Abdominal Pain/Discomfort/Distension, adverse events (healthy older adults; Part 3, LYT-100 550 mg TID): 0 n (%) | Diarrhea, adverse events (healthy older adults; Part 3, LYT-100 550 mg TID): 1 (4.2) n (%) | Dizziness, adverse events (healthy older adults; Part 3, LYT-100 550 mg TID): 1 (4.2) n (%) | Dyspepsia, adverse events (healthy older adults; Part 3, LYT-100 550 mg TID): 1 (4.2) n (%) | GI Disorders, adverse events (healthy older adults; Part 3, LYT-100 550 mg TID): 2 (8.3) n (%) | Headache, adverse events (healthy older adults; Part 3, LYT-100 550 mg TID): 3 (12.5) n (%) | Nausea, adverse events (healthy older adults; Part 3, LYT-100 550 mg TID): 0 n (%) | Nervous System Disorders, adverse events (healthy older adults; Part 3, LYT-100 550 mg TID): 3 (12.5) n (%) | Vomiting, adverse events (healthy older adults; Part 3, LYT-100 550 mg TID): 0 n (%) | tolerability (healthy older adults; Part 3, LYT-100 824 mg TID, 3 treatment days): well tolerated | Abdominal Pain/Discomfort/Distension, adverse events (healthy older adults; Part 3, LYT-100 824 mg TID): 0 n (%) | Diarrhea, adverse events (healthy older adults; Part 3, LYT-100 824 mg TID): 0 n (%) | Dizziness, adverse events (healthy older adults; Part 3, LYT-100 824 mg TID): 0 n (%) | Dyspepsia, adverse events (healthy older adults; Part 3, LYT-100 824 mg TID): 0 n (%) | GI Disorders, adverse events (healthy older adults; Part 3, LYT-100 824 mg TID): 0 n (%) | Headache, adverse events (healthy older adults; Part 3, LYT-100 824 mg TID): 0 n (%) | Nausea, adverse events (healthy older adults; Part 3, LYT-100 824 mg TID): 0 n (%) | Nervous System Disorders, adverse events (healthy older adults; Part 3, LYT-100 824 mg TID): 0 n (%) | Vomiting, adverse events (healthy older adults; Part 3, LYT-100 824 mg TID): 0 n (%) | subjects discontinued due to a TEAE (all Covid-19) (healthy older adults; Part 3, LYT-100 group N=24): 3 (12.5%) n (%) | subjects with at least one TEAE (healthy older adults; Part 3, LYT-100 group N=24): 8 (33.3%) n (%) | subjects with mild TEAEs (healthy older adults; Part 3, LYT-100 group N=24): 7 (29.2%) n (%) | COVID-19 TEAE (healthy older adults; [5]): 4 (16.7) n (%) | Headache TEAE (healthy older adults; [5]): 3 (12.5) n (%) | Discontinued, Primary Reason: Death ([1]; 550 mg TID (N = 65)): 0 n (%) | Discontinued, Primary Reason: Death ([1]; 825 mg TID (N = 64)): 0 n (%) | drug-related serious adverse events or deaths [2]: no drug-related serious adverse events (SAEs) or deaths | discontinuation rate due to AEs at least possibly related [2, 6]: 8.6% | dizziness, AE at least possibly related, incidence [2, 6]: 3.3% | fatigue, AE at least possibly related, incidence [2, 6]: 2.2% | headache, AE at least possibly related, incidence [2, 6]: 4.3% | nausea, AE at least possibly related, incidence [2, 6]: 8.7% | rash, AE at least possibly related, incidence [2, 6]: 3.3% | Dyspepsia, treatment emergent AE, events ([2]; LYT-100 750 mg BID): 6 Events | Dyspepsia, treatment emergent AE, subjects ([2]; LYT-100 750 mg BID): 6 (6.5) N (%) | Headache, treatment emergent AE, events ([2]; LYT-100 750 mg BID): 5 Events | Headache, treatment emergent AE, subjects ([2]; LYT-100 750 mg BID): 5 (5.4) N (%) | Increase in Fibrin D Dimer, treatment emergent AE, events ([2]; LYT-100 750 mg BID): 6 Events | Increase in Fibrin D Dimer, treatment emergent AE, subjects ([2]; LYT-100 750 mg BID): 5 (5.4) N (%) | Nasopharyngitis, treatment emergent AE, events ([2]; LYT-100 750 mg BID): 7 Events | Nasopharyngitis, treatment emergent AE, subjects ([2]; LYT-100 750 mg BID): 6 (6.5) N (%) | Nausea, treatment emergent AE, events ([2]; LYT-100 750 mg BID): 10 Events | Nausea, treatment emergent AE, subjects ([2]; LYT-100 750 mg BID): 8 (8.7) N (%) | Upper abdominal pain, treatment emergent AE, events ([2]; LYT-100 750 mg BID): 6 Events | Upper abdominal pain, treatment emergent AE, subjects ([2]; LYT-100 750 mg BID): 5 (5.4) N (%) | Cmax, PK Parent ([3]; Healthy Older Part 3, LYT-100 824 mg TID, fed, N=13, mean (SD)): 13.7 (5.1) mcg/mL | AUC, % higher compared to historic pirfenidone PK values ([3]; LYT-100 824 mg TID): approximately 25% | exposure equivalent, % of 801 TID pirfenidone ([3]; LYT-100 825 mg TID): 120-150% | Cmax, % higher than with pirfenidone ([3]; Part 3, LYT-100 824 mg TID): 17% | half-life (CYP2C19): 3.67 h | tolerability [4]: well tolerated
